Source: PubChem BioAssay AID248 (DTP/NCI, 2004)
Several values for one entry are separate records, joined by “and”; a condition that tells them apart may be missing. Equal entries are not always repeated. Inconclusive results and toxic doses are left out. No stated cut-off is given here; in the data, active means T/C of 150% or more; inactive means T/C below 125%.

System: L1210 leukemia ip in BDF1 mice, survival T/C
Assay: NCI In Vivo Anticancer Drug Screen. Data for tumor model L1210 Leukemia (intraperitoneal) in B6D2F1 (BDF1) mice
Settings: endpoint: mean survival time, higher = longer survival
Summary of the method: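 Value reflects the ratio of survival in compound-treated mice to survival in vehicle-treated controls, with both groups carrying the same transplanted tumor.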

[1] = dose: 100.0 mg/kg/injection, schedule: Q01DX001 (ip), vehicle: saline
[2] = dose: 200.0 mg/kg/injection, schedule: Q01DX001 (ip), vehicle: saline
[3] = dose: 100.0 mg/kg/injection, schedule: Q04DX003 (ip), vehicle: Klucel (hydroxypropylcellulose) (HPC)
[4] = dose: 200.0 mg/kg/injection, schedule: Q04DX003 (ip), vehicle: Klucel (hydroxypropylcellulose) (HPC)
[5] = dose: 400.0 mg/kg/injection, schedule: Q04DX003 (ip), vehicle: Klucel (hydroxypropylcellulose) (HPC)
[6] = dose: 100.0 mg/kg/injection, schedule: Q04DX003 (ip), vehicle: saline with Tween-80
[7] = dose: 200.0 mg/kg/injection, schedule: Q04DX003 (ip), vehicle: saline with Tween-80
[8] = dose: 400.0 mg/kg/injection, schedule: Q04DX003 (ip), vehicle: saline with Tween-80
[9] = dose: 100.0 mg/kg/injection, schedule: Q01DX009 (ip), vehicle: Klucel (hydroxypropylcellulose) (HPC)
[10] = dose: 200.0 mg/kg/injection, schedule: Q01DX009 (ip), vehicle: Klucel (hydroxypropylcellulose) (HPC)
[11] = dose: 400.0 mg/kg/injection, schedule: Q01DX009 (ip), vehicle: Klucel (hydroxypropylcellulose) (HPC)
[12] = dose: 400.0 mg/kg/injection, schedule: Q01DX001 (ip), vehicle: saline
[13] = dose: 100.0 mg/kg/injection, schedule: Q01DX001 (ip), vehicle: saline with Tween-80
[14] = dose: 200.0 mg/kg/injection, schedule: Q01DX001 (ip), vehicle: saline with Tween-80
[15] = dose: 400.0 mg/kg/injection, schedule: Q01DX001 (ip), vehicle: saline with Tween-80

Measured: T/C

Cc1c(/C=C/[N+](=O)[O-])cc(C)c2c3c(oc12)CCCC3
inactive: dose: 50.0 mg/kg/injection, schedule: Q01DX001 (ip), vehicle: saline 98 % of control | [1] 93 % of control | [2] 102 % of control

Cc1cc2c(cc1C)=NC(=Nc1nc(O)c(O)[nH]1)N=2
inactive: [3] 98 % of control | [4] 96 % of control | [5] 91 % of control

C/C(=C\n1ccccc1=N)C(=O)c1ccc(F)cc1
inactive: [3] 96 % of control | [4] 98 % of control | [5] 100 % of control

Cc1ccc(S(=O)(=O)N/N=C/C(Br)=C(/Br)C(=O)O)cc1
inactive: dose: 6.25 mg/kg/injection, schedule: Q01DX009 (ip), vehicle: Klucel (hydroxypropylcellulose) (HPC) 106 % of control | dose: 12.5 mg/kg/injection, schedule: Q01DX009 (ip), vehicle: Klucel (hydroxypropylcellulose) (HPC) 109 % of control | dose: 25.0 mg/kg/injection, schedule: Q01DX009 (ip), vehicle: Klucel (hydroxypropylcellulose) (HPC) 111 % of control | dose: 50.0 mg/kg/injection, schedule: Q01DX009 (ip), vehicle: Klucel (hydroxypropylcellulose) (HPC) 124 % of control

O=Cc1ccc(C(=O)O)cc1
inactive: [6] 98 % of control | [7] 96 % of control | [8] 95 % of control

C=C1CCC(C)(C2(c3ccccc3)OCCO2)CC1
inactive: dose: 100.0 mg/kg/injection, schedule: Q04DX002 (ip), vehicle: saline with Tween-80 98 % of control | dose: 200.0 mg/kg/injection, schedule: Q04DX002 (ip), vehicle: saline with Tween-80 95 % of control | dose: 400.0 mg/kg/injection, schedule: Q04DX002 (ip), vehicle: saline with Tween-80 91 % of control

S=C(NCc1cccc2ccccc12)Nc1ccccc1
inactive: [9] 95 % of control | [10] 97 % of control | [11] 104 % of control

CC(=O)Nc1ccc(Cc2ccc3[nH]c(C)cc(=O)c3c2)cc1
inactive: [1] 109 % of control | [2] 98 % of control | [12] 93 % of control

Cc1ccc([N+](=O)[O-])cc1NC(=O)Sc1ccc(C(C)(C)C)cc1C
inactive: dose: 100.0 mg/kg/injection, schedule: Q04DX002 (ip), vehicle: saline 101 % of control | dose: 200.0 mg/kg/injection, schedule: Q04DX002 (ip), vehicle: saline 88 % of control | dose: 400.0 mg/kg/injection, schedule: Q04DX002 (ip), vehicle: saline 101 % of control

COc1cc(C2(O)C=C(C)C(=O)C=C2C)c(OC)cc1C (configuration not stated)
inactive: dose: 50.0 mg/kg/injection, schedule: Q01DX001 (ip), vehicle: Klucel (hydroxypropylcellulose) (HPC) 92 % of control | dose: 100.0 mg/kg/injection, schedule: Q01DX001 (ip), vehicle: Klucel (hydroxypropylcellulose) (HPC) 87 % of control | dose: 200.0 mg/kg/injection, schedule: Q01DX001 (ip), vehicle: Klucel (hydroxypropylcellulose) (HPC) 86 % of control

CC(C)(CO)N=Cc1ccccc1Br
inactive: [1] 110 % of control | [2] 98 % of control | [12] 90 % of control

CC1CC[N-]CC1.CC1CC[N-]CC1.[Br][Pt+2]([Br])([Br])[Br]
inactive: dose: 6.25 mg/kg/injection, schedule: Q01DX009 (ip), vehicle: saline with Tween-80 108 % of control | dose: 12.5 mg/kg/injection, schedule: Q01DX009 (ip), vehicle: saline with Tween-80 113 % of control | dose: 12.5 mg/kg/injection, schedule: Q04DX003 (ip), vehicle: saline with Tween-80 104 % of control | dose: 25.0 mg/kg/injection, schedule: Q04DX003 (ip), vehicle: saline with Tween-80 105 % of control

O=[N+]([O-])c1ccc(OCCOCCOc2ccc(S(=O)(=O)F)cc2)c(Cl)c1
inactive: [13] 89 % of control | [14] 97 % of control | [15] 103 % of control

CN(C)S(=O)(=O)c1ccccc1C1(O)CCCCC1
inactive: dose: 100.0 mg/kg/injection, schedule: Q01DX009 (ip), vehicle: other 87 % of control | [6] 91 % of control | dose: 200.0 mg/kg/injection, schedule: Q01DX009 (ip), vehicle: other 94 % of control | [7] 102 % of control | dose: 400.0 mg/kg/injection, schedule: Q01DX009 (ip), vehicle: other 97 % of control | [8] 109 % of control

Cc1ccccc1C(O)c1cnc(C)n1Cc1ccccc1 (configuration not stated)
inactive: dose: 50.0 mg/kg/injection, schedule: Q04DX002 (ip), vehicle: saline with Tween-80 105 % of control and 88 % of control | [13] 102 % of control | dose: 100.0 mg/kg/injection, schedule: Q01DX009 (ip), vehicle: saline with Tween-80 100 % of control and 87 % of control | [6] 92 % of control | [14] 90 % of control | dose: 200.0 mg/kg/injection, schedule: Q01DX009 (ip), vehicle: saline with Tween-80 103 % of control | [7] 92 % of control | [15] 93 % of control | dose: 400.0 mg/kg/injection, schedule: Q01DX009 (ip), vehicle: saline with Tween-80 102 % of control | [8] 97 % of control

CSc1ncnc2c1ncn2N1CCCC1COS(=O)(=O)c1ccc(C)cc1 (configuration not stated)
inactive: dose: 100.0 mg/kg/injection, schedule: Q01DX001 (ip), vehicle: DMSO 96 % of control | dose: 200.0 mg/kg/injection, schedule: Q01DX001 (ip), vehicle: DMSO 90 % of control | dose: 400.0 mg/kg/injection, schedule: Q01DX001 (ip), vehicle: DMSO 95 % of control

CCCCC(CC)C(O)C(C)C(C)O (configuration not stated)
inactive: [9] 97 % of control | [3] 101 % of control | [10] 102 % of control | [4] 98 % of control | [11] 100 % of control | [5] 95 % of control

CC1C=C2c3ccccc3CC2C2C(=O)OC(=O)C12 (configuration not stated)
inactive: dose: 75.0 mg/kg/injection, schedule: Q01DX001 (ip), vehicle: saline 95 % of control | dose: 150.0 mg/kg/injection, schedule: Q01DX001 (ip), vehicle: saline 100 % of control | dose: 300.0 mg/kg/injection, schedule: Q01DX001 (ip), vehicle: saline 100 % of control

C1=CC2CC1C1CSCC21 (configuration not stated)
inactive: dose: 0.34 mg/kg/injection, schedule: Q01DX009 (ip), vehicle: saline 102 % of control | dose: 0.51 mg/kg/injection, schedule: Q01DX009 (ip), vehicle: saline 107 % of control | dose: 0.78 mg/kg/injection, schedule: Q01DX009 (ip), vehicle: saline 98 % of control | dose: 1.56 mg/kg/injection, schedule: Q04DX003 (ip), vehicle: saline 97 % of control | dose: 3.12 mg/kg/injection, schedule: Q04DX003 (ip), vehicle: saline 94 % of control

O=c1[nH]c2ccccc2c2cc3ccccc3cc12
inactive: dose: 88.8 mg/kg/injection, schedule: Q01DX001 (ip), vehicle: carboxymethylcellulose (CMC) 93 % of control and 102 % of control | dose: 100.0 mg/kg/injection, schedule: Q01DX001 (ip), vehicle: carboxymethylcellulose (CMC) 93 % of control | dose: 133.4 mg/kg/injection, schedule: Q01DX001 (ip), vehicle: carboxymethylcellulose (CMC) 95 % of control and 102 % of control | dose: 300.0 mg/kg/injection, schedule: Q01DX001 (ip), vehicle: carboxymethylcellulose (CMC) 100 % of control and 88 % of control | dose: 400.0 mg/kg/injection, schedule: Q01DX001 (ip), vehicle: carboxymethylcellulose (CMC) 93 % of control

CCOC(=O)C(Cc1ccc(O)c([N+](=O)[O-])c1)N1C(=O)c2ccccc2C1=O (configuration not stated)
inactive: [1] 107 % of control | [2] 92 % of control | [12] 95 % of control
